Measurements published in the supplement of paper PMC11061612.

What was measured:
Assay in all cases: combination Emax (second highest fraction inhibited in the dose matrix, 72 h); higher = more inhibition; extreme values may be limits of the assay
[1] = tested on: G-401 (Other Solid Carcinomas)
Procedure, shortened: (§1)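 Cell lines in DMEM/F12 or RPMI with 10% FBS were plated in 1536-well plates, held 24 hours at 37°C, 5% CO2, then given two-drug dose matrices for 72 hours (DMSO typically 0.2%). Viability was read by CellTiter-Glo 2.0 luminescence and scaled as inhibition from 0 (vehicle wells) to 1 (blank wells). Combination Emax is the second-highest inhibition in the matrix; Bliss excess is observed combination effect minus expected EA + EB − EA·EB, EA and EB being single-agent effects.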

[2] = tested on: HCC1937 (Breast Carcinoma)
Procedure, shortened: as §1

[3] = tested on: KOPN-8 (B-Lymphoblastic Leukemia)
Procedure, shortened: as §1

[4] = tested on: DU-145 (Prostate Carcinoma)
Procedure, shortened: as §1

Structure (SMILES): CN(CCO)CC[C@H](CSc1ccccc1)Nc1ccc(S(=O)(=O)NC(=O)c2ccc(N3CCC([C@@H](O)c4ccccc4-c4ccc(Cl)cc4)CC3)cc2)cc1S(=O)(=O)C(F)(F)F [AZD4320] + CCN(CCO)CCCOc1ccc2c(Nc3cc(CC(=O)Nc4cccc(F)c4)[nH]n3)ncnc2c1 [AZD2811] (first compound max 1 µM, 7x7, partner max 1 µM)
- combination Emax [1]: 0.517
- combination Emax [2]: 0.489
- combination Emax [3]: 0.963

Structure (SMILES): Cc1cc2ncnn2cc1Nc1ncc2c(n1)n(C1CCOCC1)c(=O)n2C [AZD7648] + O=C(c1cc(Cc2n[nH]c(=O)c3ccccc23)ccc1F)N1CCN(C(=O)C2CC2)CC1 [Olaparib] (first compound max 10 µM, 7x7, partner max 10 µM)
- combination Emax [4]: 0.171
- combination Emax [1]: 0.434
- combination Emax [2]: 0.154
- combination Emax [3]: 0.68

Structure (SMILES): CN(CCO)CC[C@H](CSc1ccccc1)Nc1ccc(S(=O)(=O)NC(=O)c2ccc(N3CCC([C@@H](O)c4ccccc4-c4ccc(Cl)cc4)CC3)cc2)cc1S(=O)(=O)C(F)(F)F [AZD4320] + Cn1cnc2c(F)c(Nc3ccc(Br)cc3Cl)c(C(=O)NOCCO)cc21 [Selumetinib] (first compound max 1 µM, 7x7, partner max 3 µM)
- combination Emax [4]: 0.255
- combination Emax [1]: 0.543
- combination Emax [2]: 0.601
- combination Emax [3]: 1

Structure (SMILES): CN(CCO)CC[C@H](CSc1ccccc1)Nc1ccc(S(=O)(=O)NC(=O)c2ccc(N3CCC([C@@H](O)c4ccccc4-c4ccc(Cl)cc4)CC3)cc2)cc1S(=O)(=O)C(F)(F)F [AZD4320] + Cc1cc2ncnn2cc1Nc1ncc2c(n1)n(C1CCOCC1)c(=O)n2C [AZD7648] (first compound max 1 µM, 7x7, partner max 10 µM)
- combination Emax [1]: 0.424
- combination Emax [2]: 0.29
- combination Emax [3]: 0.88

Structure (SMILES): Cc1cc2ncnn2cc1Nc1ncc2c(n1)n(C1CCOCC1)c(=O)n2C [AZD7648] + COc1cc([C@@H]2c3cc4c(cc3[C@@H](O[C@@H]3O[C@@H]5CO[C@@H](C)O[C@H]5[C@H](O)[C@H]3O)[C@H]3COC(=O)[C@H]23)OCO4)cc(OC)c1O [Etoposide] (first compound max 10 µM, 7x7, partner max 10 µM)
- combination Emax [4]: 0.441

Structure (SMILES): Cc1cc2ncnn2cc1Nc1ncc2c(n1)n(C1CCOCC1)c(=O)n2C [AZD7648] + C[C@@H]1COCCN1C2=NC(=NC(=C2)C3(CC3)[S@](=N)(=O)C)C4=C5C=CNC5=NC=C4 [AZD6738] (first compound max 10 µM, 7x7, partner max 10 µM)
- combination Emax [4]: 0.478
- combination Emax [1]: 0.379
- combination Emax [2]: 0.527
- combination Emax [3]: 0.891

Structure (SMILES): CN(CCO)CC[C@H](CSc1ccccc1)Nc1ccc(S(=O)(=O)NC(=O)c2ccc(N3CCC([C@@H](O)c4ccccc4-c4ccc(Cl)cc4)CC3)cc2)cc1S(=O)(=O)C(F)(F)F [AZD4320] + Nc1ccn([C@@H]2O[C@H](CO)[C@@H](O)C2(F)F)c(=O)n1 [Gemcitabine] (first compound max 1 µM, 7x7, partner max 0.3 µM)
- combination Emax [4]: 0.485

Structure (SMILES): C[C@@H](c1ccc2nccn2c1)n1nnc2ncc(-c3cnn(C)c3)nc21 [Savolitinib] + Cc1c2c(nn1C)CSCc1cc(n(C)n1)CSc1cc(c3ccccc3c1)OCCCc1c(C(=O)O)n(C)c3c-2c(Cl)ccc13 [AZD5991] (first compound max 1 µM, 7x7, partner max 1 µM)
- combination Emax [4]: 0.132
- combination Emax [1]: 0.295
- combination Emax [2]: 0.182
- combination Emax [3]: 0.844

Structure (SMILES): N#Cc1cnc(Nc2cc(NC[C@H]3CNCCO3)c(C(F)(F)F)cn2)cn1 [SRA737] + O=c1[nH]cc(F)c(=O)[nH]1 [5-Fluorouracil] (first compound max 10 µM, 7x7, partner max 20 µM)
- combination Emax [4]: 0.439

Structure (SMILES): Cc1cc2ncnn2cc1Nc1ncc2c(n1)n(C1CCOCC1)c(=O)n2C [AZD7648] + CCN(CCO)CCCOc1ccc2c(Nc3cc(CC(=O)Nc4cccc(F)c4)[nH]n3)ncnc2c1 [AZD2811] (first compound max 10 µM, 7x7, partner max 1 µM)
- combination Emax [4]: 0.209
- combination Emax [1]: 0.51
- combination Emax [2]: 0.234
- combination Emax [3]: 0.58

Structure (SMILES): CN(CCO)CC[C@H](CSc1ccccc1)Nc1ccc(S(=O)(=O)NC(=O)c2ccc(N3CCC([C@@H](O)c4ccccc4-c4ccc(Cl)cc4)CC3)cc2)cc1S(=O)(=O)C(F)(F)F [AZD4320] + C1CN(CCC1(C(=O)N[C@@H](CCO)C2=CC=C(C=C2)Cl)N)C3=NC=NC4=C3C=CN4 [Capivasertib] (first compound max 1 µM, 7x7, partner max 3 µM)
- combination Emax [4]: 0.0863
- combination Emax [1]: 0.529
- combination Emax [2]: 0.434
- combination Emax [3]: 0.883

Structure (SMILES): CN(CCO)CC[C@H](CSc1ccccc1)Nc1ccc(S(=O)(=O)NC(=O)c2ccc(N3CCC([C@@H](O)c4ccccc4-c4ccc(Cl)cc4)CC3)cc2)cc1S(=O)(=O)C(F)(F)F [AZD4320] + C[C@@H]1COCCN1C2=NC(=NC(=C2)C3(CC3)[S@](=N)(=O)C)C4=C5C=CNC5=NC=C4 [AZD6738] (first compound max 1 µM, 7x7, partner max 10 µM)
- combination Emax [4]: 0.6
- combination Emax [1]: 0.742
- combination Emax [2]: 0.761
- combination Emax [3]: 0.995

Structure (SMILES): CN(CCO)CC[C@H](CSc1ccccc1)Nc1ccc(S(=O)(=O)NC(=O)c2ccc(N3CCC([C@@H](O)c4ccccc4-c4ccc(Cl)cc4)CC3)cc2)cc1S(=O)(=O)C(F)(F)F [AZD4320] + C[C@@H](Nc1cc(F)cc(F)c1)c1cc(C(=O)N(C)C)cc2c(=O)cc(N3CCOCC3)oc12 [AZD8186] (first compound max 1 µM, 7x7, partner max 3 µM)
- combination Emax [4]: 0.227
- combination Emax [1]: 0.661
- combination Emax [2]: 0.63
- combination Emax [3]: 1

Structure (SMILES): CN(CCO)CC[C@H](CSc1ccccc1)Nc1ccc(S(=O)(=O)NC(=O)c2ccc(N3CCC([C@@H](O)c4ccccc4-c4ccc(Cl)cc4)CC3)cc2)cc1S(=O)(=O)C(F)(F)F [AZD4320] + CC(=O)O[C@H]1C(=O)[C@@]2(C)[C@H]([C@H](OC(=O)c3ccccc3)[C@]3(O)C[C@H](OC(=O)[C@H](O)[C@@H](NC(=O)c4ccccc4)c4ccccc4)C(C)=C1C3(C)C)[C@]1(OC(C)=O)CO[C@@H]1C[C@@H]2O [Paclitaxel] (first compound max 1 µM, 7x7, partner max 3 µM)
- combination Emax [4]: 0.818

Structure (SMILES): C[C@@H](c1ccc2nccn2c1)n1nnc2ncc(-c3cnn(C)c3)nc21 [Savolitinib] + CC1(C)CCC(CN2CCN(c3ccc(C(=O)NS(=O)(=O)c4ccc(NCC5CCOCC5)c([N+](=O)[O-])c4)c(Oc4cnc5[nH]ccc5c4)c3)CC2)=C(c2ccc(Cl)cc2)C1 [Venetoclax] (first compound max 1 µM, 7x7, partner max 1 µM)
- combination Emax [4]: 0.101
- combination Emax [1]: 0.104
- combination Emax [2]: 0.165
- combination Emax [3]: 0.743

Structure (SMILES): COc1cc2c(cc1OCCCCCOc1cc3c(cc1OC)C(=O)N1C=C(C)C[C@H]1C=N3)N=C[C@@H]1CC(C)=CN1C2=O [SG3199] + O=C(c1cc(Cc2n[nH]c(=O)c3ccccc23)ccc1F)N1CCN(C(=O)C2CC2)CC1 [Olaparib] (first compound max 0.001 µM, 7x7, partner max 10 µM)
- combination Emax [4]: 0.104
- combination Emax [1]: 0.32
- combination Emax [2]: 0.14
- combination Emax [3]: 0.719

Structure (SMILES): N#Cc1cnc(Nc2cc(NC[C@H]3CNCCO3)c(C(F)(F)F)cn2)cn1 [SRA737] + Nc1ccn([C@@H]2O[C@H](CO)[C@@H](O)C2(F)F)c(=O)n1 [Gemcitabine] (first compound max 10 µM, 7x7, partner max 0.3 µM)
- combination Emax [4]: 0.544

Structure (SMILES): Cc1nc(Nc2ncc(C(=O)Nc3c(C)cccc3Cl)s2)cc(N2CCN(CCO)CC2)n1 [Dasatinib] + CC(=O)Nc1cccc(-n2c(=O)n(C3CC3)c(=O)c3c(Nc4ccc(I)cc4F)n(C)c(=O)c(C)c32)c1 [Trametinib] (first compound max 2 µM, 7x7, partner max 1 µM)
- combination Emax [4]: 0.457
- combination Emax [1]: 0.903
- combination Emax [2]: 0.5
- combination Emax [3]: 0.545

Structure (SMILES): Cc1cc2ncnn2cc1Nc1ncc2c(n1)n(C1CCOCC1)c(=O)n2C [AZD7648] + C=CCn1c(=O)c2cnc(Nc3ccc(N4CCN(C)CC4)cc3)nc2n1-c1cccc(C(C)(C)O)n1 [AZD1775] (first compound max 10 µM, partner max 1 µM)
- combination Emax [4]: 0.289
- combination Emax [1]: 0.674
- combination Emax [2]: 0.52
- combination Emax [3]: 0.903

Structure (SMILES): N#Cc1cnc(Nc2cc(NC[C@H]3CNCCO3)c(C(F)(F)F)cn2)cn1 [SRA737] + C=CCn1c(=O)c2cnc(Nc3ccc(N4CCN(C)CC4)cc3)nc2n1-c1cccc(C(C)(C)O)n1 [AZD1775] (first compound max 10 µM, partner max 1 µM)
- combination Emax [4]: 0.263

Structure (SMILES): Cc1c2c(nn1C)CSCc1cc(n(C)n1)CSc1cc(c3ccccc3c1)OCCCc1c(C(=O)O)n(C)c3c-2c(Cl)ccc13 [AZD5991] + Cn1cnc2c(F)c(Nc3ccc(Br)cc3Cl)c(C(=O)NOCCO)cc21 [Selumetinib] (first compound max 1 µM, 7x7, partner max 3 µM)
- combination Emax [4]: 0.221
- combination Emax [1]: 0.474
- combination Emax [2]: 0.464
- combination Emax [3]: 1

Structure (SMILES): Cc1cc2ncnn2cc1Nc1ncc2c(n1)n(C1CCOCC1)c(=O)n2C [AZD7648] + CN(C)CCCOc1ccc(-c2ccc3ncc4c(c3c2)n(C2CCOCC2)c(=O)n4C)cn1 [AZD0156] (first compound max 10 µM, 7x7, partner max 1 µM)
- combination Emax [4]: 0.167
- combination Emax [1]: 0.329
- combination Emax [2]: 0.221
- combination Emax [3]: 0.311

Structure (SMILES): COc1cc2ncnc(Nc3ccc(F)c(Cl)c3)c2cc1OCCCN1CCOCC1 [Gefitinib] + CC(C)n1c(=O)n(C)c2cnc3cc(F)c(-c4ccc(OCCCN5CCCCC5)nc4)cc3c21 [AZD1390] (first compound max 10 µM, 7x7, partner max 0.3 µM)
- combination Emax [4]: 0.167
- combination Emax [1]: 0.404
- combination Emax [2]: 0.272
- combination Emax [3]: 0.241

Structure (SMILES): N#Cc1cnc(Nc2cc(NC[C@H]3CNCCO3)c(C(F)(F)F)cn2)cn1 [SRA737] + CCc1c2c(nc3ccc(O)cc13)-c1cc3c(c(=O)n1C2)COC(=O)[C@]3(O)CC [SN-38] (first compound max 10 µM, 7x7, partner max 0.3 µM)
- combination Emax [4]: 0.628
